ChEMBL document CHEMBL3885861, “Open TG-GATES”
Counter-ions that a name gives are not always drawn.

Species: Rattus norvegicus
Assay: Open TG-GATES - Regimen: Single
Assay type: toxicity, organism-based, Sprague-Dawley
Set-up: regimen Single, gender Male, age 6 weeks
Settings: in vivo, ip, 0 mg/kg, route intraperitoneal injection, dose level Control; for APTT / Bas / Eos / Fbg / Hb / Ht / Lym / MCH / MCHC / MCV / Mono / Neu / PT / Plat / RBC / Ret / WBC: tissue Blood; for KIDNEY_L / KIDNEY_R / KIDNEY_TOTAL: tissue Kidney; for LIVER: tissue Liver; for A/G / ALP / ALT / AST / BUN / CRE / Ca / Cl / DBIL / GLC / IP / K / LDH / Na / PL / RALB / TBIL / TC / TG / TP / gamma-GTP: tissue Plasma

SMILES: CCOC(=O)/C=C\C(=O)OCC [DIETHYL MALEATE]
- TERMINAL_BW (3 h): 198.9 g
- APTT (3 h): 16.4 s
- Bas (3 h): 0%
- Eos (3 h): 0.6%
- Fbg (3 h): 209.8 mg/dL
- Hb (3 h): 13 g/dL
- Ht (3 h): 39.1%
- Lym (3 h): 69.8%
- MCH (3 h): 21.2 pg
- MCHC (3 h): 33.4%
- MCV (3 h): 63.6 fL
- Mono (3 h): 7%
- Neu (3 h): 22.8%
- PT (3 h): 12.3 s
- Plat (3 h): 114.7 x10_4/uL
- RBC (3 h): 615.6 x10_4/ul
- Ret (3 h): 10.1%
- WBC (3 h): 113.4 x10_2/uL
- KIDNEY_L (3 h): 0.9 g
- KIDNEY_R (3 h): 0.9 g
- KIDNEY_TOTAL (3 h): 1.8 g
- LIVER (3 h): 9.2 g
- A/G (3 h): 2
- ALP (3 h): 732.6 IU/L
- ALT (3 h): 39.8 IU/L
- AST (3 h): 78.2 IU/L
- BUN (3 h): 14.6 mg/dL
- CRE (3 h): 0.5 mg/dL
- Ca (3 h): 11.2 mg/dL
- Cl (3 h): 106 meq/L
- DBIL (3 h): 0.028 mg/dL
- GLC (3 h): 187 mg/dL
- IP (3 h): 10.1 mg/dL
- K (3 h): 5.2 meq/L
- LDH (3 h): 80.6 IU/L
- Na (3 h): 140.4 meq/L
- PL (3 h): 137.4 mg/dL
- RALB (3 h): 3.6 g/dL
- TBIL (3 h): 0.3 mg/dL
- TC (3 h): 79.6 mg/dL
- TG (3 h): 38 mg/dL
- TP (3 h): 5.4 g/dL
- gamma-GTP (3 h): 1 IU/L
- TERMINAL_BW (6 h): 197.4 g
- APTT (6 h): 16.4 s
- Bas (6 h): 0%
- Eos (6 h): 1%
- Fbg (6 h): 219.8 mg/dL
- Hb (6 h): 13.4 g/dL
- Ht (6 h): 40.3%
- Lym (6 h): 67%
- MCH (6 h): 21.6 pg
- MCHC (6 h): 33.3%
- MCV (6 h): 64.8 fL
- Mono (6 h): 7.4%
- Neu (6 h): 24.6%
- PT (6 h): 12 s
- Plat (6 h): 118.6 x10_4/uL
- RBC (6 h): 621.6 x10_4/ul
- Ret (6 h): 8.9%
- WBC (6 h): 102 x10_2/uL
- KIDNEY_L (6 h): 0.8 g
- KIDNEY_R (6 h): 0.9 g
- KIDNEY_TOTAL (6 h): 1.7 g
- LIVER (6 h): 8.3 g
- A/G (6 h): 1.8
- ALP (6 h): 838.6 IU/L
- ALT (6 h): 35.2 IU/L
- AST (6 h): 67 IU/L
- BUN (6 h): 14 mg/dL
- CRE (6 h): 0.4 mg/dL
- Ca (6 h): 10.6 mg/dL
- Cl (6 h): 106.6 meq/L
- DBIL (6 h): 0.018 mg/dL
- GLC (6 h): 191 mg/dL
- IP (6 h): 10.4 mg/dL
- K (6 h): 5.2 meq/L
- LDH (6 h): 70.4 IU/L
- Na (6 h): 139.8 meq/L
- PL (6 h): 142.6 mg/dL
- RALB (6 h): 3.4 g/dL
- TBIL (6 h): 0.4 mg/dL
- TC (6 h): 84.2 mg/dL
- TG (6 h): 51.2 mg/dL
- TP (6 h): 5.3 g/dL
- gamma-GTP (6 h): 1.6 IU/L
- TERMINAL_BW (9 h): 194.7 g
- APTT (9 h): 16.6 s
- Bas (9 h): 0%
- Eos (9 h): 0.6%
- Fbg (9 h): 228.4 mg/dL
- Hb (9 h): 12.7 g/dL
- Ht (9 h): 38%
- Lym (9 h): 73.8%
- MCH (9 h): 21.7 pg
- MCHC (9 h): 33.3%
- MCV (9 h): 65 fL
- Mono (9 h): 3%
- Neu (9 h): 22.6%
- PT (9 h): 11.9 s
- Plat (9 h): 117 x10_4/uL
- RBC (9 h): 585.2 x10_4/ul
- Ret (9 h): 9.9%
- WBC (9 h): 101.3 x10_2/uL
- KIDNEY_L (9 h): 0.9 g
- KIDNEY_R (9 h): 0.9 g
- KIDNEY_TOTAL (9 h): 1.8 g
- LIVER (9 h): 7.9 g
- A/G (9 h): 2.2
- ALP (9 h): 605 IU/L
- ALT (9 h): 29.6 IU/L
- AST (9 h): 66.4 IU/L
- BUN (9 h): 11.8 mg/dL
- CRE (9 h): 0.5 mg/dL
- Ca (9 h): 10.6 mg/dL
- Cl (9 h): 106.8 meq/L
- DBIL (9 h): 0.036 mg/dL
- GLC (9 h): 191.8 mg/dL
- IP (9 h): 10.3 mg/dL
- K (9 h): 5 meq/L
- LDH (9 h): 59 IU/L
- Na (9 h): 138 meq/L
- PL (9 h): 133.2 mg/dL
- RALB (9 h): 3.6 g/dL
- TBIL (9 h): 0.4 mg/dL
- TC (9 h): 76.8 mg/dL
- TG (9 h): 40.4 mg/dL
- TP (9 h): 5.3 g/dL
- gamma-GTP (9 h): 2.4 IU/L
- TERMINAL_BW (24 h): 212.9 g
- APTT (24 h): 16 s
- Bas (24 h): 0%
- Eos (24 h): 0.4%
- Fbg (24 h): 226.8 mg/dL
- Hb (24 h): 12.9 g/dL
- Ht (24 h): 38.4%
- Lym (24 h): 79.8%
- MCH (24 h): 21.8 pg
- MCHC (24 h): 33.7%
- MCV (24 h): 65 fL
- Mono (24 h): 4.6%
- Neu (24 h): 15%
- PT (24 h): 11.7 s
- Plat (24 h): 121.2 x10_4/uL
- RBC (24 h): 590.8 x10_4/ul
- Ret (24 h): 9.5%
- WBC (24 h): 106.7 x10_2/uL
- KIDNEY_L (24 h): 0.9 g
- KIDNEY_R (24 h): 0.9 g
- KIDNEY_TOTAL (24 h): 1.8 g
- LIVER (24 h): 10.1 g
- A/G (24 h): 2.2
- ALP (24 h): 864.6 IU/L
- ALT (24 h): 34.8 IU/L
- AST (24 h): 66.8 IU/L
- BUN (24 h): 20.4 mg/dL
- CRE (24 h): 0.5 mg/dL
- Ca (24 h): 10.8 mg/dL
- Cl (24 h): 106 meq/L
- DBIL (24 h): 0.018 mg/dL
- GLC (24 h): 202.2 mg/dL
- IP (24 h): 8.6 mg/dL
- K (24 h): 4.9 meq/L
- LDH (24 h): 93.4 IU/L
- Na (24 h): 140 meq/L
- PL (24 h): 143.2 mg/dL
- RALB (24 h): 3.8 g/dL
- TBIL (24 h): 0.3 mg/dL
- TC (24 h): 77.2 mg/dL
- TG (24 h): 93.6 mg/dL
- TP (24 h): 5.5 g/dL
- gamma-GTP (24 h): 2.2 IU/L
